Experimental data published in PubChem BioAssay AID248 (DTP/NCI, 2004).
“And” between values parts separate entries of the source, which are not always exact repeats. Identical values can stand only once. Inconclusive results and toxic doses are left out.

Tested on: L1210 leukemia ip in BDF1 mice, survival T/C
Experiment: NCI In Vivo Anticancer Drug Screen. Data for tumor model L1210 Leukemia (intraperitoneal) in B6D2F1 (BDF1) mice
Details: endpoint: mean survival time, higher = longer survival
Procedure, shortened: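 Value reflects the ratio of survival in compound-treated mice to survival in vehicle-treated controls, with both groups carrying the same transplanted tumor.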

[1] = dose: 100.0 mg/kg/injection, schedule: Q01DX005 (ip), vehicle: Klucel (hydroxypropylcellulose) (HPC)
[2] = dose: 100.0 mg/kg/injection, schedule: Q01DX009 (ip), vehicle: Klucel (hydroxypropylcellulose) (HPC)
[3] = dose: 200.0 mg/kg/injection, schedule: Q01DX005 (ip), vehicle: Klucel (hydroxypropylcellulose) (HPC)
[4] = dose: 200.0 mg/kg/injection, schedule: Q01DX009 (ip), vehicle: Klucel (hydroxypropylcellulose) (HPC)
[5] = dose: 400.0 mg/kg/injection, schedule: Q01DX005 (ip), vehicle: Klucel (hydroxypropylcellulose) (HPC)
[6] = dose: 400.0 mg/kg/injection, schedule: Q01DX009 (ip), vehicle: Klucel (hydroxypropylcellulose) (HPC)
[7] = dose: 100.0 mg/kg/injection, schedule: Q04DX003 (ip), vehicle: saline
[8] = dose: 200.0 mg/kg/injection, schedule: Q04DX003 (ip), vehicle: saline
[9] = dose: 100.0 mg/kg/injection, schedule: Q04DX003 (ip), vehicle: Klucel (hydroxypropylcellulose) (HPC)
[10] = dose: 200.0 mg/kg/injection, schedule: Q04DX003 (ip), vehicle: Klucel (hydroxypropylcellulose) (HPC)
[11] = dose: 400.0 mg/kg/injection, schedule: Q04DX003 (ip), vehicle: Klucel (hydroxypropylcellulose) (HPC)
[12] = dose: 100.0 mg/kg/injection, schedule: Q01DX001 (ip), vehicle: carboxymethylcellulose (CMC)
[13] = dose: 200.0 mg/kg/injection, schedule: Q01DX001 (ip), vehicle: carboxymethylcellulose (CMC)
[14] = dose: 400.0 mg/kg/injection, schedule: Q01DX001 (ip), vehicle: carboxymethylcellulose (CMC)

Structure (SMILES): O=[N+]([O-])c1ccc(Oc2ccc(S(=O)(=O)c3ccc(Oc4ccc([N+](=O)[O-])cc4)c([N+](=O)[O-])c3)cc2[N+](=O)[O-])cc1
- T/C [1]: 101 % of control
- T/C [2]: 102 % of control
- T/C (dose: 100.0 mg/kg/injection, schedule: Q04DX002 (ip), vehicle: Klucel (hydroxypropylcellulose) (HPC)): 110 % of control
- T/C [3]: 97 % of control
- T/C [4]: 102 % of control
- T/C (dose: 200.0 mg/kg/injection, schedule: Q04DX002 (ip), vehicle: Klucel (hydroxypropylcellulose) (HPC)): 96 % of control
- T/C [5]: 90 % of control
- T/C [6]: 98 % of control
- T/C (dose: 400.0 mg/kg/injection, schedule: Q04DX002 (ip), vehicle: Klucel (hydroxypropylcellulose) (HPC)): 100 % of control

Structure (SMILES): CCOC(=O)c1ccc(NC(=O)Oc2ccccc2OCC)cc1
- T/C [2]: 97 % of control
- T/C [4]: 95 % of control
- T/C [6]: 90 % of control

Structure (SMILES): CC(=O)OCc1c[n+]([O-])c(C)c(OC(C)=O)c1COC(C)=O
- T/C (dose: 25.0 mg/kg/injection, schedule: Q04DX003 (ip), vehicle: saline): 101 % of control
- T/C (dose: 50.0 mg/kg/injection, schedule: Q04DX003 (ip), vehicle: saline): 101 % of control

Structure (SMILES): Cc1ccc(S(=O)(=O)Nc2ccccc2-c2nc3c(Cl)ccc(Cl)c3c(=O)o2)cc1
- T/C (dose: 100.0 mg/kg/injection, schedule: Q01DX009 (ip), vehicle: other): 105 % of control
- T/C [7]: 88 % of control
- T/C (dose: 200.0 mg/kg/injection, schedule: Q01DX009 (ip), vehicle: other): 96 % of control
- T/C [8]: 93 % of control
- T/C (dose: 400.0 mg/kg/injection, schedule: Q01DX009 (ip), vehicle: other): 104 % of control
- T/C (dose: 400.0 mg/kg/injection, schedule: Q04DX003 (ip), vehicle: saline): 90 % of control

Structure (SMILES): Cc1cc2oc(/C=N/N3CCOCC3)c(C)c2cc1C
- T/C [2]: 96 % of control
- T/C [9]: 90 % of control
- T/C [4]: 103 % of control
- T/C [10]: 102 % of control
- T/C [6]: 99 % of control
- T/C [11]: 98 % of control

Structure (SMILES): O=c1ncc2[nH]c(I)nc2[nH]1
- T/C [12]: 96 % of control

Structure (SMILES): CC(=O)N1C(=O)C2(Nc3ccccc3N2)c2ccccc21
- T/C [12]: 87 % of control
- T/C [13]: 87 % of control
- T/C [14]: 96 % of control

Structure (SMILES): Clc1ccc(C2NC(c3ccc(Cl)cc3)NC(c3ccc(Cl)cc3)N2)cc1 (configuration not stated)
- T/C (dose: 75.0 mg/kg/injection, schedule: Q01DX001 (ip), vehicle: saline): 95 % of control
- T/C (dose: 150.0 mg/kg/injection, schedule: Q01DX001 (ip), vehicle: saline): 95 % of control
- T/C (dose: 300.0 mg/kg/injection, schedule: Q01DX001 (ip), vehicle: saline): 90 % of control

Structure (SMILES): COc1ccc(C(=O)N/N=C/c2cccc([N+](=O)[O-])c2)cc1
- T/C [12]: 98 % of control
- T/C (dose: 100.0 mg/kg/injection, schedule: Q01DX009 (ip), vehicle: carboxymethylcellulose (CMC)): 90 % of control and 92 % of control
- T/C (dose: 100.0 mg/kg/injection, schedule: Q04DX002 (ip), vehicle: other): 98 % of control
- T/C (dose: 100.0 mg/kg/injection, schedule: Q04DX003 (ip), vehicle: carboxymethylcellulose (CMC)): 98 % of control
- T/C [13]: 97 % of control
- T/C (dose: 200.0 mg/kg/injection, schedule: Q01DX009 (ip), vehicle: carboxymethylcellulose (CMC)): 101 % of control and 90 % of control
- T/C (dose: 200.0 mg/kg/injection, schedule: Q04DX002 (ip), vehicle: other): 95 % of control
- T/C (dose: 200.0 mg/kg/injection, schedule: Q04DX003 (ip), vehicle: carboxymethylcellulose (CMC)): 98 % of control
- T/C [14]: 93 % of control
- T/C (dose: 400.0 mg/kg/injection, schedule: Q01DX009 (ip), vehicle: carboxymethylcellulose (CMC)): 95 % of control and 96 % of control
- T/C (dose: 400.0 mg/kg/injection, schedule: Q04DX002 (ip), vehicle: other): 95 % of control
- T/C (dose: 400.0 mg/kg/injection, schedule: Q04DX003 (ip), vehicle: carboxymethylcellulose (CMC)): 102 % of control

Structure (SMILES): CCN(CC)CCOC(=O)Cc1ccccc1
- T/C [2]: 94 % of control
- T/C [9]: 97 % of control
- T/C [4]: 104 % of control
- T/C [10]: 100 % of control
- T/C [6]: 105 % of control
- T/C [11]: 100 % of control

Structure (SMILES): CCN(CC)c1ccc(N=C2C=C(C(=O)Nc3ccccc3)C(=O)c3ccccc32)cc1
- T/C (dose: 100.0 mg/kg/injection, schedule: Q01DX001 (ip), vehicle: other): 86 % of control
- T/C (dose: 200.0 mg/kg/injection, schedule: Q01DX001 (ip), vehicle: other): 89 % of control
- T/C (dose: 400.0 mg/kg/injection, schedule: Q01DX001 (ip), vehicle: other): 88 % of control

Structure (SMILES): C=CCOC(=O)COCC(=O)OCC=C
- T/C [7]: 97 % of control
- T/C [8]: 88 % of control

Structure (SMILES): COc1ccccc1C(CC(=O)c1ccccc1)Sc1ccccc1N (configuration not stated)
- T/C [1]: 118 % of control and 89 % of control
- T/C [2]: 93 % of control
- T/C (dose: 130.0 mg/kg/injection, schedule: Q01DX005 (ip), vehicle: Klucel (hydroxypropylcellulose) (HPC)): 97 % of control
- T/C [3]: 115 % of control and 90 % of control
- T/C [4]: 93 % of control
- T/C (dose: 300.0 mg/kg/injection, schedule: Q01DX005 (ip), vehicle: Klucel (hydroxypropylcellulose) (HPC)): 103 % of control
- T/C [5]: 96 % of control and 87 % of control
- T/C [6]: 86 % of control

Structure (SMILES): CC(=O)Oc1ccc(/C=N/NC(N)=S)nc1
- T/C (dose: 24.0 mg/kg/injection, schedule: Q03HX024 (ip), vehicle: saline with Tween-80): 212 % of control
- T/C (dose: 36.0 mg/kg/injection, schedule: Q03HX024 (ip), vehicle: saline with Tween-80): 339 % of control

Structure (SMILES): CC(N=CN(C)C)c1cccc2ccccc12 (configuration not stated)
- T/C (dose: 75.0 mg/kg/injection, schedule: Q01DX009 (ip), vehicle: saline with Tween-80): 102 % of control
- T/C (dose: 100.0 mg/kg/injection, schedule: Q04DX003 (ip), vehicle: saline with Tween-80): 97 % of control
- T/C (dose: 150.0 mg/kg/injection, schedule: Q01DX009 (ip), vehicle: saline with Tween-80): 112 % of control
- T/C (dose: 200.0 mg/kg/injection, schedule: Q04DX003 (ip), vehicle: saline with Tween-80): 102 % of control
- T/C (dose: 300.0 mg/kg/injection, schedule: Q01DX009 (ip), vehicle: saline with Tween-80): 112 % of control

Structure (SMILES): CN1CC(=O)n2c(cc3ccccc32)C1=O
- T/C (dose: 100.0 mg/kg/injection, schedule: Q04DX002 (ip), vehicle: saline): 110 % of control
- T/C (dose: 400.0 mg/kg/injection, schedule: Q04DX002 (ip), vehicle: saline): 105 % of control

Structure (SMILES): COc1ccc(Cl)cc1NC(=O)COc1ccc(Cl)cc1
- T/C [2]: 96 % of control
- T/C [9]: 102 % of control
- T/C [4]: 107 % of control
- T/C [10]: 122 % of control
- T/C [6]: 96 % of control
- T/C [11]: 90 % of control

Structure (SMILES): O=P(CCl)(Oc1ccc(Cl)cc1)Oc1ccc(Cl)cc1
- T/C (dose: 100.0 mg/kg/injection, schedule: Q01DX001 (ip), vehicle: saline): 103 % of control
- T/C (dose: 200.0 mg/kg/injection, schedule: Q01DX001 (ip), vehicle: saline): 95 % of control

Structure (SMILES): CCSc1nc(N)nc2c1ncn2C
- T/C (dose: 100.0 mg/kg/injection, schedule: Q01DX001 (ip), vehicle: acetone): 94 % of control
- T/C (dose: 200.0 mg/kg/injection, schedule: Q01DX001 (ip), vehicle: acetone): 91 % of control
- T/C (dose: 400.0 mg/kg/injection, schedule: Q01DX001 (ip), vehicle: acetone): 90 % of control

Structure (SMILES): CCOC(=O)C(C)Oc1cccc(O)c1[N+](=O)[O-] (configuration not stated)
- T/C (dose: 100.0 mg/kg/injection, schedule: Q01DX001 (ip), vehicle: saline with Tween-80): 95 % of control
- T/C (dose: 200.0 mg/kg/injection, schedule: Q01DX001 (ip), vehicle: saline with Tween-80): 97 % of control
- T/C (dose: 400.0 mg/kg/injection, schedule: Q01DX001 (ip), vehicle: saline with Tween-80): 90 % of control
